Results from patent US7553972B2, “Benzamide inhibitors of the P2X7 receptor” (Pfizer, Inc., priority 2003, dated 2009).

Target: T1, P2X7 receptor (Homo sapiens, UniProt Q99572)
T1 construct: endogenous in cells
T1 sequence (Q99572 1-595): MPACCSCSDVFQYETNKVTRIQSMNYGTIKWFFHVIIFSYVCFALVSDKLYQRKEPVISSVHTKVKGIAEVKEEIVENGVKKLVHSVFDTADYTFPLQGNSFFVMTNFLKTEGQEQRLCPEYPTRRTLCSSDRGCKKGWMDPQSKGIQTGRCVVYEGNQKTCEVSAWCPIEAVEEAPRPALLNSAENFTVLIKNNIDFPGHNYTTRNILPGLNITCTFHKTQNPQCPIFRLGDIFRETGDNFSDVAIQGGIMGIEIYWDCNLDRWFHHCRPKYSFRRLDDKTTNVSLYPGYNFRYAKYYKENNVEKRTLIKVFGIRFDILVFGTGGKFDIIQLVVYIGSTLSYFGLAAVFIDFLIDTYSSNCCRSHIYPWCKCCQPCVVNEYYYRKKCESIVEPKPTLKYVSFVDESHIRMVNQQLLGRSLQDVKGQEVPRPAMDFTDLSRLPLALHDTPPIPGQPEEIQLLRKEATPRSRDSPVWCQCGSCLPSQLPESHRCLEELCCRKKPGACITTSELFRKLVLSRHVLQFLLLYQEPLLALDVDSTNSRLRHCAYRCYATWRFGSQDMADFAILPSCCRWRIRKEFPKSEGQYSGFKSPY
Experiment: Inhibition of ATP-stimulated IL-1β release from LPS-activated blood monocytes (P2X7 antagonist activity, ELISA readout)
Type: cell-based
Conditions: not given
Experimental: In like manner, the compounds of the invention can be tested for antagonist activity at the P2X7 receptor using the cytokine IL-1β as the readout. Blood collected from normal volunteers in the presence of heparin is fractionated using lymphocyte separation medium obtained from Organon Technica (Westchester, Pa.). […] The resulting cell pellet was suspended in 10 ml of Maintenance Medium and a cell count was performed. In an average experiment, 2×10^5 mononuclear cells are seeded into each well of 96-well plates in a total volume of 0.1 ml. Monocytes are allowed to adhere for 2 hours, after which the supernatants are discarded and the attached cells are rinsed twice and then incubated in Maintenance Medium overnight at 37° C. in a 5% CO2 environment.
(§1) The cultured monocytes can be activated with 10 ng/ml LPS (E. coli serotype 055:B5; Sigma Chemicals, St. Louis, Mo.). […] ATP then is introduced (from a 100 mM stock solution, pH 7) to achieve a final concentration of 2 mM and the plate is incubated at 37° C. for an additional 3 hours. Media were harvested and clarified by centrifugation, and their IL-1[…] content was determined by ELISA (R&D Systems; Minneapolis, Minn.).
Blood was collected from normal volunteers in the presence of heparin, and was fractionated using lymphocyte separation medium obtained from Organon Technica (Westchester, Pa.). […] The resulting cell pellet was suspended in 10 ml of Maintenance Medium and a cell count was performed. Approximately, 2×10^5 mononuclear cells were seeded into each well of 96-well plates in a total volume of 0.1 ml. Monocytes were allowed to adhere for 2 hours, after which the supernatants were discarded and the attached cells were rinsed twice and then incubated in Maintenance Medium overnight at 37° C. in a 5% CO2 environment.
as §1, with “monocytes were” for “monocytes can be”, “then was” for “then is”, “plate was” for “plate is”, “their IL-1β” for “their IL-1[…]”

Compound	IC50 [nM]
Cc1nc(-c2ccc(Cl)c(C(=O)NCC3(O)CCCCCC3)c2)cs1 [Example 59, 2-Chloro-N-(1-hydroxy-cycloheptylmethyl)-5-(2-methyl-thiazol-4-yl)-benzamide]	280

Same assay, conditions: monocytes from normal volunteers, 10 ng/ml LPS 2 h, compound 30 min, 2 mM ATP 3 h, IL-1β by ELISA, triplicate wells; read-out: IC50 (inhibit 50% of the stimulation of the release of IL-1β from monocytes by ATP)

IC50 [nM]	Compound
245	O=C(NCC1(O)CCCCCC1)c1cc(-c2ccc(=O)n(CCO)n2)ccc1Cl [Example 38, 2-Chloro-N-(1-hydroxy-cycloheptylmethyl)-5-[1-(2-hydroxy-ethyl)-6-oxo-1,6-dihydro-pyridazin-3-yl]-benzamide]
8	Cc1cc(-c2ccc(Cl)c(C(=O)NCC3(O)CCCCCC3)c2)nn1C[C@@H](O)CO [Example 40, 2-Chloro-5-[1-(2,3-dihydroxy-propyl)-5-methyl-1H-pyrazol-3-yl]-N-(1-hydroxy-cycloheptylmethyl)-benzamide]
30	CC(C)(O)Cn1ccc(-c2ccc(Cl)c(C(=O)NCC3(O)CCCCCC3)c2)n1 [Example 41, 2-Chloro-N-(1-hydroxy-cycloheptylmethyl)-5-[1-(2-hydroxy-2-methyl-propyl)-1H-pyrazol-3-yl]-benzamide]
8	Cc1cc(-c2ccc(Cl)c(C(=O)NCC3(O)CCCCCC3)c2)nn1CC(C)(C)O [Example 42, 2-Chloro-N-(1-hydroxy-cycloheptylmethyl)-5-[1-(2-hydroxy-2-methyl-propyl)-5-methyl-1H-pyrazol-3-yl]-benzamide]
130	Cc1cc(-c2ccc(Cl)c(C(=O)NCC3(O)CCCCCC3)c2)n(C[C@@H](O)CO)n1 [Example 43, 2-Chloro-5-[2-(2,3-dihydroxy-propyl)-5-methyl-2H-pyrazol-3-yl]-N-(1-hydroxy-cycloheptylmethyl)-benzamide]
2.5	Cc1cc(-c2ccc(Cl)c(C(=O)NCC3(O)CCCCCC3)c2)nn1CC(O)CN (stereo not drawn) [Example 44, 5-[1-(3-Amino-2-hydroxy-propyl)-5-methyl-1H-pyrazol-3-yl]-2-chloro-N-(1-hydroxy-cycloheptylmethyl)-benzamide]
6	Cc1cc(-c2ccc(Cl)c(C(=O)NCC3(O)CCCCCC3)c2)nn1C[C@@](C)(O)CO [Example 45, 2-Chloro-5-[1-(2,3-dihydroxy-2-methyl-propyl)-5-methyl-1H-pyrazol-3-yl]-N-(1-hydroxy-cycloheptylmethyl)-benzamide]
22	Cc1cc(-c2ccc(Cl)c(C(=O)NCC3(O)CCCCCC3)c2)nn1CC(=O)N1CCCC1 [Example 46, 2-Chloro-N-(1-hydroxy-cycloheptylmethyl)-5-[5-methyl-1-(2-oxo-2-pyrrolidin-1-yl-ethyl)-1H-pyrazol-3-yl]-benzamide]
3.5	Cc1cc(-c2ccc(Cl)c(C(=O)NCC3(O)CCCCCC3)c2)nn1CC(=O)NCCN(C)C [Example 47, 2-Chloro-5-{1-[(2-dimethylamino-ethylcarbamoyl)-methyl]-5-methyl-1H-pyrazol-3-yl}-N-(1-hydroxy-cycloheptylmethyl)-benzamide]
10.5	CCC(CO)NC(=O)Cn1nc(-c2ccc(Cl)c(C(=O)NCC3(O)CCCCCC3)c2)cc1C (stereo not drawn) [Example 48, 2-Chloro-N-(1-hydroxy-cycloheptylmethyl)-5-{1-[(1-hydroxymethyl-propylcarbamoyl)-methyl]-5-methyl-1H-pyrazol-3-yl}-benzamide]
5	CNC(=O)CNC(=O)Cn1nc(-c2ccc(Cl)c(C(=O)NCC3(O)CCCCCC3)c2)cc1C [Example 49, 2-Chloro-N-(1-hydroxy-cycloheptylmethyl)-5-{5-methyl-1-[(methylcarbamoylmethyl-carbamoyl)-methyl]-1H-pyrazol-3-yl}-benzamide]
5	Cc1cc(-c2ccc(Cl)c(C(=O)NCC3(O)CCCCCC3)c2)nn1CC(=O)NC(CO)CO [Example 50, 2-Chloro-N-(1-hydroxy-cycloheptylmethyl)-5-{1-[(2-hydroxy-1-hydroxymethyl-ethylcarbamoyl)-methyl]-5-methyl-1H-pyrazol-3-yl}-benzamide]
5	Cc1cc(-c2ccc(Cl)c(C(=O)NCC3(O)CCCCCC3)c2)nn1CC(=O)NC[C@H](C)O [Example 51, 2-Chloro-N-(1-hydroxy-cycloheptylmethyl)-5-{1-[(2-hydroxy-propylcarbamoyl)-methyl]-5-methyl-1H-pyrazol-3-yl}-benzamide]
8	Cc1cc(-c2ccc(Cl)c(C(=O)NCC3(O)CCCCCC3)c2)nn1CC(=O)Nc1ncccn1 [Example 52, 2-Chloro-N-(1-hydroxy-cycloheptylmethyl)-5-[5-methyl-1-(pyrimidin-2-ylcarbamoylmethyl)-1H-pyrazol-3-yl]-benzamide]
15.5	Cc1cc(-c2ccc(Cl)c(C(=O)NCC3(O)CCCCCC3)c2)nn1CC(=O)N1C[C@H](O)[C@@H](O)C1 [Example 53, 2-Chloro-5-{1-[2-(3,4-dihydroxy-pyrrolidin-1-yl)-2-oxo-ethyl]-5-methyl-1H-pyrazol-3-yl}-N-(1-hydroxy-cycloheptylmethyl)-benzamide]
5	Cc1cc(-c2ccc(Cl)c(C(=O)NCC3(O)CCCCCC3)c2)nn1C[C@@H](O)CN [Example 54, 5-[1-(3-Amino-2-hydroxy-propyl)-5-methyl-1H-pyrazol-3-yl]-2-chloro-N-(1-hydroxy-cycloheptylmethyl)-benzamide]
365	Cc1cc(-c2ccc(Cl)c(C(=O)NCC3(O)CCCCCC3)c2)n(C[C@@H](O)CN)n1 [Example 55, 5-[2-(3-Amino-2-hydroxy-propyl)-5-methyl-2H-pyrazol-3-yl]-2-chloro-N-(1-hydroxy-cycloheptylmethyl)-benzamide]
480	O=C(NCC1(O)CCCCCC1)c1cc(-c2cn[nH]n2)ccc1Cl [Example 56, 2-Chloro-N-(1-hydroxy-cycloheptylmethyl)-5-(2H-[1,2,3]triazol-4-yl)-benzamide]
> 1000	O=C(NCC1(O)CCCCCC1)c1cc(-c2cn(CC(O)CF)cn2)ccc1Cl (stereo not drawn) [Example 57, 2-Chloro-5-[1-(3-fluoro-2-hydroxy-propyl)-1H-imidazol-4-yl]-N-(1-hydroxy-cycloheptylmethyl)-benzamide]
430	O=C(NCC1(O)CCCCCC1)c1cc(-c2cc(CCO)on2)ccc1Cl [Example 58, 2-Chloro-N-(1-hydroxy-cycloheptylmethyl)-5-[5-(2-hydroxy-ethyl)-isoxazol-3-yl]-benzamide]
